Common to all, as to assay type: cell-based
In assay [1] the test system is BaF3-FL-EGFR-Del19. The assay can be described thus: Cell growth (Cell Titer-Glo viability), BaF3-FL-EGFR-Del19. To be noted: Mus musculus; BaF3-FL-EGFR-Del19 (EGFR delE746_A750 mutant kinase), 72 hrs. Put shortly: (§1)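 Proliferation assay: IL-3-independent BaF3 lines stably expressing TEL-fused human kinase (retroviral MSCV-Puro), plus EGFR-mutant NSCLC lines (HCC827 del19, NCI-H3255 L858R). Read-out: CellTiter-Glo luminescence of viable cells.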

Assay [2] deals with H3255. Description: Effect on cell apoptosis (Western Blot, PARP and Caspase 3 cleavage), H3255. The conditions noted are these: H3255 (EGFR L858R), 24 hours. The text has this: In order to confirm whether the death of cells is through apoptosis or necrosis after administration of drugs, non-small cell lung cancer cell A549 (expressing wild-type EGFR gene), non-small cell lung cancer cell line H1975 (expressing EGFR L858R/T790M double mutant gene), non-small cell lung cancer cell line H3255 (expressing EGFR L858R mutant gene), non-small cell lung cancer cell line H3122 (expressing ALK gene) cell line, and non-small cell lung cancer cell line PC-9 (expressing EGFR delE746_A750 mutant gene) were tested for effect of Compound 1 on cleavage of poly ADP-ribose polymerase PARP which is a DNA repair enzyme and Caspase 3, which were closely related to cell apoptosis. […] Western Blot was used to detect the effect of various concentrations of drugs at various time points on cleavage of poly ADP-ribose polymerase PARP which is a DNA repair enzyme and Caspase 3.
(A western blot detects proteins with antibodies after separation by electrophoresis.)

Assay [3] relates to H3255. Description: Effect on cell cycle (PI staining, flow cytometer), H3255. To be noted: H3255 (EGFR L858R), 24 hours. The text has this:
In order to study which growth phase the cell was halted after administration of the drugs, five cell lines including non-small cell lung cancer cell line A549 (expressing wild-type EGFR gene), non-small cell lung cancer cell line H1975 (expressing EGFR L858R/T790M double mutant gene), non-small cell Lung cancer cell line PC-9 (expressing EGFR delE746_A750 mutant gene), non-small cell lung cancer cell line H3255 (expressing EGFR L858R mutant gene) and non-small cell lung cancer cell NCI-H3122 (expressing ALK gene) were tested for effect of Compound 1 on cell cycle distribution. Two cell lines including non-small cell lung cancer cell NCI-H3122 (expressing ALK gene) and non-small cell lung cancer cell H1975 (expressing EGFR L858R/T790M double mutant gene) were tested for effect of Compound 10 on cell cycle distribution. […]
A general note: In flow cytometry, cells or beads pass a laser one at a time.

Assay [4] deals with BaF3-ALK-F1174L. Description: Cell growth (Cell Titer-Glo viability), BaF3-ALK-F1174L. To be noted: Mus musculus; BaF3-ALK-F1174L (mutant ALK F1174L kinase), 72 hrs. An outline of the steps:
as §1
(In general: ATP-based viability assays read luminescence as a measure of living cells.)

For the molecule `C=CC(=O)Nc1cc(Nc2ncc(Cl)c(Nc3ccccc3S(=O)(=O)C(C)C)n2)c(OC)cc1N1CCN(CC)CC1` [Compound 1, N-(5-(5-chloro-4-(2-(isopropylsulfonyl)phenylamino)pyrimidin-2-ylamino)-2-(4-ethylpiperazin-1-yl)-4-methoxyphenyl)acrylamide], in assay [1], the GI50 (as a rule, the concentration giving 50% growth inhibition) was less than 0.3 nM. In addition, the “concentration at which evident cleavage of PARP and Caspase 3 could be observed” value in assay [2] is 0.03 µM. Also, the “effect on cell cycle distribution” value in assay [3] is given as “halt the cells in G0-G1 phase”.

With `C=CC(=O)Nc1cc(Nc2ncc(Cl)c(Nc3ccccc3S(=O)(=O)C(C)C)n2)c(OC)cc1N1CCCN(C)CC1` [Compound 10, N-(5-(5-chloro-4-(2-(isopropylsulfonyl)phenylamino)pyrimidin-2-ylamino)-4-methoxy-2-(4-methyl-1,4-homopiperazin-1-yl)phenyl)acrylamide], in assay [4], it took 1500 nM to inhibit growth by half (GI50).

The record behind these values is patent publication US10350210B2, “EGFR and ALK dual inhibitor” (PRECEDO PHARMACEUTICALS CO., LTD, priority 2015, dated 2019).
